Test results from PubChem BioAssay (NCI).
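Grown in 96-well plates, cells were treated for 48 hours with each compound at five concentrations. Insufficient inhibition: endpoint recorded as highest concentration tested. Here, GI50 denotes the concentration required for 50% inhibition of growth. TGI denotes the concentration required for complete inhibition of growth.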

How the values were obtained:
Assay in all cases: NCI anticancer screen, dose series, 48 h
NCI-H226 lung = tested on: NCI-H226 lung
NCI-H522 lung = tested on: NCI-H522 lung
M14 melanoma = tested on: M14 melanoma
LOX IMVI melanoma = tested on: LOX IMVI melanoma
SK-MEL-2 melanoma = tested on: SK-MEL-2 melanoma
OVCAR-8 ovarian = tested on: OVCAR-8 ovarian
SNB-75 CNS = tested on: SNB-75 CNS
SK-MEL-28 melanoma = tested on: SK-MEL-28 melanoma
SK-MEL-5 melanoma = tested on: SK-MEL-5 melanoma
SF-268 CNS = tested on: SF-268 CNS
MDA-MB-231 breast = tested on: MDA-MB-231 breast
T-47D breast = tested on: T-47D breast
MDA-MB-468 breast = tested on: MDA-MB-468 breast
HT29 colon = tested on: HT29 colon
DU-145 prostate = tested on: DU-145 prostate
HOP-92 NSCLC = tested on: HOP-92 NSCLC
OVCAR-5 ovarian = tested on: OVCAR-5 ovarian
HCT-15 colon = tested on: HCT-15 colon
SN12C renal = tested on: SN12C renal
SW-620 colon = tested on: SW-620 colon
COLO 205 colon = tested on: COLO 205 colon
U251 CNS = tested on: U251 CNS
TK-10 renal = tested on: TK-10 renal
786-0 renal = tested on: 786-0 renal
A498 renal = tested on: A498 renal
SK-OV-3 ovarian = tested on: SK-OV-3 ovarian
SF-539 CNS = tested on: SF-539 CNS
HCC-2998 colon = tested on: HCC-2998 colon
SNB-19 CNS = tested on: SNB-19 CNS

CN(C)c1nc(NCCNS(=O)(=O)c2ccc(C(=O)/C=C/c3ccc(F)cc3)cc2)nc(Nc2ccc(F)cc2)n1
GI50 (NCI-H226 lung): 3.41 µM
TGI (NCI-H226 lung): 16.4 µM
GI50 (NCI-H522 lung): 2.81 µM
TGI (NCI-H522 lung): 8.9 µM
GI50 (M14 melanoma): 2.6 µM
TGI (M14 melanoma): 8.29 µM
GI50 (LOX IMVI melanoma): 1.66 µM
TGI (LOX IMVI melanoma): 3.07 µM
GI50 (SK-MEL-2 melanoma): 2.77 µM
TGI (SK-MEL-2 melanoma): 8.31 µM
GI50 (OVCAR-8 ovarian): 3.42 µM
TGI (OVCAR-8 ovarian): 13.9 µM
GI50 (SNB-75 CNS): 2.88 µM
TGI (SNB-75 CNS): 16 µM
GI50 (SK-MEL-28 melanoma): 3.6 µM
TGI (SK-MEL-28 melanoma): 13.7 µM
GI50 (SK-MEL-5 melanoma): 2.91 µM
TGI (SK-MEL-5 melanoma): 11.1 µM
GI50 (SF-268 CNS): 3.89 µM
TGI (SF-268 CNS): 16.4 µM
GI50 (MDA-MB-231 breast): 2.64 µM
TGI (MDA-MB-231 breast): 8.38 µM
GI50 (T-47D breast): 3.02 µM
TGI (T-47D breast): 11.7 µM
GI50 (MDA-MB-468 breast): 2.55 µM
TGI (MDA-MB-468 breast): 8.09 µM
GI50 (HT29 colon): 1.9 µM
TGI (HT29 colon): 3.65 µM
GI50 (DU-145 prostate): 3.94 µM
TGI (DU-145 prostate): 14 µM
GI50 (HOP-92 NSCLC): 2.49 µM
TGI (HOP-92 NSCLC): 6.51 µM
GI50 (OVCAR-5 ovarian): 3.39 µM
TGI (OVCAR-5 ovarian): 15 µM
GI50 (HCT-15 colon): 1.99 µM
TGI (HCT-15 colon): 4.28 µM
GI50 (SN12C renal): 1.7 µM
TGI (SN12C renal): 3.36 µM
GI50 (SW-620 colon): 1.9 µM
TGI (SW-620 colon): 4.02 µM
GI50 (COLO 205 colon): 2.38 µM
TGI (COLO 205 colon): 6.56 µM
GI50 (U251 CNS): 1.99 µM
TGI (U251 CNS): 4.41 µM
GI50 (TK-10 renal): 4.62 µM
TGI (TK-10 renal): 16.6 µM
GI50 (786-0 renal): 2.56 µM
TGI (786-0 renal): 6.3 µM
GI50 (A498 renal): 6.21 µM
TGI (A498 renal): 19.3 µM
GI50 (SK-OV-3 ovarian): 8.23 µM
TGI (SK-OV-3 ovarian): 21.6 µM
GI50 (SF-539 CNS): 2.52 µM
TGI (SF-539 CNS): 6.78 µM
GI50 (HCC-2998 colon): 1.8 µM
TGI (HCC-2998 colon): 3.45 µM
GI50 (SNB-19 CNS): 4.58 µM
TGI (SNB-19 CNS): 16.8 µM
